The first test has as its system CD34^+CD38^− cells. The experiment in a line: Expansion of CD34+CD38− cells from human cord blood-derived CD34+ cells (Example 2). Particulars: 1 μg/mL compound, 50 ng/mL SCF, StemSpan SFEM, 7 days; based on number of CD34+CD38− cells in the absence of compound. It counts as cell-based. Here is the method:
The human cord blood-derived CD34^+ cells collected or purchased in Example 1 were plated on a 24-well plate (TPP) (10000 cells/1/mL/well). As the culture medium, StemSpan SFEM (Stemcell Technologies) containing 50 ng/mL SCF (Peprotech) was used, and Compounds No. 1 to 133 dissolved in dimethyl sulfoxide were added in an amount of 0.1% (v/v) to a final concentration of 1 μg/mL.
After the cells were incubated in liquid culture at 37° C. for 7 days in a CO2 incubator (5% CO2), the number of viable cells was counted by trypan blue assay. The number of CD34^+CD38^− cells was calculated as follows. After the incubation, the cells in the liquid culture was stained with a CD34 antibody (APC, Becton, Dickinson and Company) and a CD38 antibody (PE, Becton, Dickinson and Company), then washed with PBS(−) containing 2% (v/v) FBS and stained with propidium iodide (Sigma-Aldrich Japan) added to a final concentration of 5 μg/mL. The stained cells were analyzed with a flow cytometer JSAN (Bay Bioscience) to determined the proportion of CD34^+CD38^− cells, which was multiplied by the number of viable cells to calculate the number of CD34^+CD38^− cells.
The expansion efficiencies in the presence of 1 μg/mL of compounds based on the number of CD34^+CD38^− cells in the absence of them are shown in Tables 2 and 3 on a scale of A for expansion efficiencies of 10 or greater, B for expansion efficiencies of at least 5 and less than 10, and C for expansion efficiencies of at least 3 and less than 5.
For `C/C(=N\NC(=O)c1ccc(C(=O)NCc2cn(C)cn2)s1)c1csc(-c2ccc(C(F)(F)F)cc2)c1O` [compound 131], the Expansion efficiency entry is “A (A for expansion efficiencies of 10 or greater)”.

`C/C(=N\NC(=O)c1ccc(C(=O)NCCO)s1)c1csc(-c2ccc(Cl)cc2)c1O` [compound 70]: the Expansion efficiency result was “B (B for expansion efficiencies of at least 5 and less than 10)”.

The same test, now with this note: Homo sapiens, 168 h, 1 μg/mL compound, 50 ng/mL SCF, StemSpan SFEM, 7 days; based on number of CD34+CD38− cells in the absence of compound; read-out: Expansion efficiency.
As for `COc1ccc(-c2scc(/C(C)=N/NC(=O)c3ccc(C(=O)NCc4ccc(C(N)=O)cc4)s3)c2O)cc1` [compound 91], the fold induction at 1 µg/mL is not below 10.

On to `C/C(=N\NC(=O)c1ccc(C(=O)NC(C)c2ccc(C(N)=O)cc2)s1)c1csc(-c2ccc(OC(F)(F)F)cc2)c1O` (stereo not shown) [compound 118], for which the fold induction at 1 µg/mL is not below 10.

As to `C/C(=N\NC(=O)c1ccc(C(=O)NCc2cn(C)cn2)s1)c1csc(-c2ccc(C(F)(F)F)cc2)c1O` [compound 55], the fold induction at 1 µg/mL lay within 5 to 10.

On to `CC(=O)Nc1ccc(C(C)NC(=O)c2ccc(C(=O)N/N=C(\C)c3csc(-c4ccc(Br)cc4)c3O)s2)cc1` (stereo not shown) [compound 122], for which the fold induction at 1 µg/mL was not below 10.

Consider `C/C(=N\NC(=O)c1ccc(C(=O)NCc2cnn(C)n2)s1)c1csc(-c2ccc(Cl)c(Cl)c2)c1O` [compound 53], for which the fold induction at 1 µg/mL lay in the range of 5 to 10.

Consider `C/C(=N\NC(=O)c1ccc(C(=O)NCc2cc(C)on2)s1)c1csc(-c2ccc(Cl)c(Cl)c2)c1O` [compound 38], for which the fold induction at 1 µg/mL was not below 10.

As to `C/C(=N\NC(=O)c1ccc(C(=O)NCc2c(C)nn(C)c2C)s1)c1csc(-c2ccc(Cl)c(Cl)c2)c1O` [compound 41], the fold induction at 1 µg/mL is 5 to 10.

Regarding `COc1ccc(-c2scc(/C(C)=N/NC(=O)c3ccc(C(=O)NC(C)c4ccc(NC(C)=O)cc4)s3)c2O)cc1` (stereo not shown) [compound 126], the fold induction at 1 µg/mL is not below 10.

On to `C/C(=N\NC(=O)c1ccc(C(=O)NC(C)c2ccc(C(N)=O)cc2)s1)c1csc(-c2ccc(Cl)c(Cl)c2)c1O` (stereo not shown) [compound 113], for which the fold induction at 1 µg/mL is not below 10.

For `CNC(=O)c1ccc(CNC(=O)c2ccc(C(=O)N/N=C(\C)c3csc(-c4ccc(Cl)cc4)c3O)s2)cc1` [compound 110], the fold induction at 1 µg/mL was not below 10.

`C/C(=N\NC(=O)c1ccc(C(=O)NCc2cc(C)n(C)n2)s1)c1csc(-c2ccc(Cl)cc2)c1O` [compound 19]: the fold induction at 1 µg/mL is not below 10.

Take `CNC(=O)c1ccc(C(=O)N/N=C(\C)c2csc(-c3ccc(Cl)cc3)c2O)s1` [compound 11]: the fold induction at 1 µg/mL is not below 10.

On to `C/C(=N\NC(=O)c1ccc(C(=O)NCc2c(C)nn(C)c2C)s1)c1csc(-c2ccc(C(F)(F)F)cc2)c1O` [compound 49], for which the fold induction at 1 µg/mL is 5 to 10.

Take `C/C(=N\NC(=O)c1ccc(C(=O)NCc2ccc(C(N)=O)cc2)s1)c1csc(-c2ccc(Br)cc2)c1O` [compound 87]: the fold induction at 1 µg/mL was not below 10.

As for `CNC(=O)c1ccc(CNC(=O)c2ccc(C(=O)N/N=C(\C)c3csc(-c4ccc(C(C)(C)C)cc4)c3O)s2)cc1` [compound 107], the fold induction at 1 µg/mL is not below 10.

As for `C/C(=N\NC(=O)c1ccc(C(=O)NCc2ccccc2C(N)=O)s1)c1csc(-c2ccc(C(F)(F)F)cc2)c1O` [compound 102], the fold induction at 1 µg/mL is not below 10.

For the compound `C/C(=N\NC(=O)c1ccc(C(=O)NCc2cnccn2)s1)c1csc(-c2ccc(Cl)c(Cl)c2)c1O` [compound 8], the fold induction at 1 µg/mL was not below 10.

For the compound `C/C(=N\NC(=O)c1ccc(C(=O)NCCN2CCOCC2)s1)c1csc(-c2ccc(Cl)c(Cl)c2)c1O` [compound 23], the fold induction at 1 µg/mL is 5 to 10.

`C/C(=N\NC(=O)c1ccc(C(=O)NCCN(C)C)s1)c1csc(-c2ccc(Cl)c(Cl)c2)c1O` [compound 66]: the fold induction at 1 µg/mL is 3 to 5.

Turning to `C/C(=N\NC(=O)c1ccc(C(=O)NC(C)C)s1)c1csc(-c2ccc(Cl)cc2)c1O` [compound 77], the fold induction at 1 µg/mL was in the range of 5 to 10.

Regarding `CCCCCN(C)C(=O)c1ccc(C(=O)N/N=C(\C)c2csc(-c3ccc(Cl)c(Cl)c3)c2O)s1` [compound 27], the fold induction at 1 µg/mL was in the range of 5 to 10.

On to `COc1ccc(-c2scc(/C(C)=N/NC(=O)c3ccc(C(=O)NCc4cc(C)n(C)n4)s3)c2O)cc1` [compound 129], for which the fold induction at 1 µg/mL was not below 10.

For `C/C(=N\NC(=O)c1ccc(C(=O)NCc2ccccc2C(N)=O)s1)c1csc(-c2ccc(Cl)cc2)c1O` [compound 103], the fold induction at 1 µg/mL is not below 10.

With `C/C(=N\NC(=O)c1ccc(C(=O)NC2CCC(O)CC2)s1)c1csc(-c2ccc(Cl)c(Cl)c2)c1O` (stereo not shown) [compound 68], the fold induction at 1 µg/mL fell in the range of 5 to 10.

Take `C/C(=N\NC(=O)c1ccc(C(=O)N(C)Cc2ccccc2)s1)c1csc(-c2ccc(Cl)c(Cl)c2)c1O` [compound 26]: the fold induction at 1 µg/mL was not below 10.

Regarding `C/C(=N\NC(=O)c1ccc(C(=O)NCc2cccc(C(N)=O)c2)s1)c1csc(-c2ccc(C(C)(C)C)cc2)c1O` [compound 93], the fold induction at 1 µg/mL is not below 10.

For the compound `C/C(=N\NC(=O)c1ccc(C(=O)NCCCN2CCOCC2)s1)c1csc(-c2ccc(Br)cc2)c1O` [compound 33], the fold induction at 1 µg/mL fell in the range of 5 to 10.

In the case of `C/C(=N\NC(=O)c1ccc(C(=O)NCc2cnc(C)cn2)s1)c1csc(-c2ccc(OC(F)(F)F)cc2)c1O` [compound 14], the fold induction at 1 µg/mL is not below 10.

On to `C/C(=N\NC(=O)c1ccc(C(=O)NCCCN(C)C)s1)c1csc(-c2ccc(Cl)c(Cl)c2)c1O` [compound 64], for which the fold induction at 1 µg/mL is 3 to 5.

In the case of `C/C(=N\NC(=O)c1ccc(C(=O)NCc2cncn2C)s1)c1csc(-c2ccc(Cl)c(Cl)c2)c1O` [compound 51], the fold induction at 1 µg/mL was 5 to 10.

In the case of `C/C(=N\NC(=O)c1ccc(C(=O)N(C)Cc2ccccc2)s1)c1csc(-c2cccc(Cl)c2)c1O` [compound 79], the fold induction at 1 µg/mL is 3 to 5.

For the compound `C/C(=N\NC(=O)c1ccc(C(=O)NCCN2CCOCC2)s1)c1csc(-c2ccc(OC(F)(F)F)cc2)c1O` [compound 29], the fold induction at 1 µg/mL was not below 10.

On to `C/C(=N\NC(=O)c1ccc(C(=O)NCc2cccc(C(N)=O)c2)s1)c1csc(-c2ccc(OC(F)(F)F)cc2)c1O` [compound 97], for which the fold induction at 1 µg/mL was not below 10.

As for `C/C(=N\NC(=O)c1ccc(C(=O)NCc2ccccc2C(N)=O)s1)c1csc(-c2ccc(C(C)(C)C)cc2)c1O` [compound 100], the fold induction at 1 µg/mL was 3 to 5.

`C/C(=N\NC(=O)c1ccc(C(=O)NCCN2CCCC2)s1)c1csc(-c2ccc(Cl)c(Cl)c2)c1O` [compound 67]: the fold induction at 1 µg/mL is 3 to 5.

For `C/C(=N\NC(=O)c1ccc(C(=O)NCc2cc(C)n(C)n2)s1)c1csc(-c2ccc(Br)cc2)c1O` [compound 127], the fold induction at 1 µg/mL was not below 10.

Take `C/C(=N\NC(=O)c1ccc(C(=O)NCc2ccc(S(N)(=O)=O)cc2)s1)c1csc(-c2ccc(Cl)c(Cl)c2)c1O` [compound 61]: the fold induction at 1 µg/mL was in the range of 5 to 10.

As to `C/C(=N\NC(=O)c1ccc(C(=O)NCc2cnn(C)n2)s1)c1csc(-c2ccc(C(F)(F)F)cc2)c1O` [compound 54], the fold induction at 1 µg/mL fell in the range of 5 to 10.

For `C/C(=N\NC(=O)c1ccc(C(=O)NCc2cc(C)on2)s1)c1csc(-c2ccc(C(F)(F)F)cc2)c1O` [compound 46], the fold induction at 1 µg/mL lay in the range of 5 to 10.

Turning to `C/C(=N\NC(=O)c1ccc(C(=O)NCc2cccc(C(N)=O)c2)s1)c1csc(-c2ccc(Br)cc2)c1O` [compound 94], the fold induction at 1 µg/mL was not below 10.

As for `C/C(=N\NC(=O)c1ccc(C(=O)NCc2ccccc2C(N)=O)s1)c1csc(-c2ccc(Br)cc2)c1O` [compound 101], the fold induction at 1 µg/mL was not below 10.

For the compound `COc1c(/C(C)=N/NC(=O)c2ccc(C(=O)NCc3ccncc3)s2)csc1-c1ccc(Cl)c(Cl)c1` [compound 42], the fold induction at 1 µg/mL lay in the range of 5 to 10.

Turning to `COc1cc(CNC(=O)c2ccc(C(=O)N/N=C(\C)c3csc(-c4ccc(C(F)(F)F)cc4)c3O)s2)on1` [compound 50], the fold induction at 1 µg/mL lay in the range of 5 to 10.

As to `C/C(=N\NC(=O)c1ccc(C(=O)NCc2cccc(C(N)=O)c2)s1)c1csc(-c2ccc(Cl)cc2)c1O` [compound 96], the fold induction at 1 µg/mL is not below 10.

As for `C/C(=N\NC(=O)c1ccc(C(=O)NCc2cccc(C(N)=O)c2)s1)c1csc(-c2ccc(Cl)c(Cl)c2)c1O` [compound 92], the fold induction at 1 µg/mL is not below 10.

As for `C/C(=N\NC(=O)c1ccc(C(=O)NCc2ccccc2C(N)=O)s1)c1csc(-c2ccc(Cl)c(Cl)c2)c1O` [compound 99], the fold induction at 1 µg/mL was not below 10.

With `COc1ccc(-c2scc(/C(C)=N/NC(=O)c3ccc(C(=O)NCc4ccccc4C(N)=O)s3)c2O)cc1` [compound 105], the fold induction at 1 µg/mL is 5 to 10.

As for `C/C(=N\NC(=O)c1ccc(C(=O)NCc2ccc(C(N)=O)cc2)s1)c1csc(-c2ccc(C(F)(F)F)cc2)c1O` [compound 88], the fold induction at 1 µg/mL is not below 10.

For `CCCCCNC(=O)c1ccc(C(=O)N/N=C(\C)c2csc(-c3ccc(Cl)c(Cl)c3)c2O)s1` [compound 69], the fold induction at 1 µg/mL was in the range of 3 to 5.

Regarding `COc1cc(CNC(=O)c2ccc(C(=O)N/N=C(\C)c3csc(-c4ccc(Cl)cc4)c3O)s2)on1` [compound 17], the fold induction at 1 µg/mL was not below 10.

Source of the values: patent US9527828B2, “Method for expanding hematopoietic stem cells using heterocyclic compound” (Nissan Chemical Industries, Ltd., priority 2007, dated 2016).
